# Data reported in patent US6699682B2, “Assay for inhibitors of fatty-acid amide hydrolase” (The Scripps Research Institute, priority 1995, dated 2004).
# Experiments:
# [1] = target: T1, FAAH activity of a rat brain membrane fraction (Rattus norvegicus, UniProt P97612); format: biochemical; conditions: rat brain membrane fractions, TLC
# T1 construct: Cis-9,10-octadecenoamide with rat brain membrane fraction +1 mM phenylmethylsulfonyl fluoride (PMSF); from tissue; host or cells: rat brain membrane fraction
# T1 sequence (P97612 1-579): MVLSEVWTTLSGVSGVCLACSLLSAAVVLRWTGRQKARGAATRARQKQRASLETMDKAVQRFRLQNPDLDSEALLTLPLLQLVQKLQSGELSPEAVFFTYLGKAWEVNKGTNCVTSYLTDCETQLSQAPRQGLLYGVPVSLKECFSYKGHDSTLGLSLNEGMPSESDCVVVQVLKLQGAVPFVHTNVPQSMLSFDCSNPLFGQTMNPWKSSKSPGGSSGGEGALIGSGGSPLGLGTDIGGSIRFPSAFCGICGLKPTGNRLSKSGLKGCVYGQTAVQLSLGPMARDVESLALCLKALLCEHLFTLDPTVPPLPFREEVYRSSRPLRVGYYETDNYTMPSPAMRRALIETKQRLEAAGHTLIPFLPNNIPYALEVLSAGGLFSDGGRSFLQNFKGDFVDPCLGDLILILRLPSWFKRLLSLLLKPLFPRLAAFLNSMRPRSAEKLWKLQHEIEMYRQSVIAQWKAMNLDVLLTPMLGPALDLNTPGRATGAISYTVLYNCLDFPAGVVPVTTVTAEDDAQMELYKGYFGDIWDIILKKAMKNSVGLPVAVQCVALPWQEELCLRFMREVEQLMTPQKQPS
# Description: In each case the enzymic reaction is performed is a separate reaction vessel and the product is spotted onto a TLC plate.
# [2] = target: T2, recombinant expressed rat FAAH (Rattus norvegicus, UniProt P97612); experiment: FAAH hydrolysis assays with 14C-labeled fatty acid amide substrates (TLC, scintillation counting); format: biochemical; conditions: for Rate of Hydrolysis: 35 μg transfected COS-7 cell protein, 5 minutes, 37° C.
# T2 construct: expressed in transfected cells; host or cells: COS-7 cells, transient, pcDNA3; dounce-homogenised cell extract
# T2 sequence (P97612 1-579): T1 sequence (P97612 1-579)
# Description: Therefore, COS-7 cells transfected with the rat FAAH cDNA were assayed for anandamide hydrolase activity. To assess the enzymatic activity of the expressed recombinant fatty acid amide hydrolases of this invention on labeled anandamide, the following enzymatic assay was performed. ^14C-anandamide was synthesized as follows: 12.5 μCi (specific activity of 50 μCi/μM) of ^14C arachidonic acid (Moravek Biochemicals) was dissolved in 100 μl CH2Cl2, cooled to 0° C., and treated with excess oxalyl chloride. The reaction mixture was stirred at 25° C. for 6 hours, after which time the solvent was evaporated. The remaining residue was cooled to 0° C., treated with a large excess of ethanolamine, and stirred at 25° C. for 15 minutes. The reaction mixture was then partitioned between ethyl acetate and 2 M HCl, and the organic layer was washed with water and then evaporated to dryness. The resulting ^14C-anandamide was diluted with unlabeled anandamide to a final specific activity of 5 μCi/μM in ethanol. Approximately 1 μCi of ^14C-anandamide and 20 μl of dounce homogenized COS-7 cell extract were used for each anandamide hydrolase assay as detailed above for the oleamide hydrolase assays. Briefly, FAAH hydrolysis assays were conducted in triplicate with 100 μM substrate, 35 μg of rat transfected COS-7 cell protein for 5 minutes at 37° C. (except in the case of stearic amide, where due to low solubility, 20 μM substrate comparison to oleamide were conducted). Products were separated on TLC as described previously, scraped into scintillation fluid, and radioactivity was quantitated by scintillation counting. Substrate hydrolysis in the presence of equal amounts of untransfected COS-7 cell protein extract served as background control in all cases and was substracted from FAAH hydrolysis rates to give the data as presented below.
# To further assess the substrate specificity spectrum of enyzmatic hydolytic activity of the recombinant expressed proteins of this invention, other ^14C-labeled fatty acid amides were synthesized as described in Section B6 and above for ^14C-oleamide, with the exception of anandamide as described.
# Where indicated in the table the anandamide and oleamide hydrolysis rates are considered to be 100% of FAAH activity to which other fatty acid amide hydrolysis rates are compared.
# rats = experiment: effect on spontaneous behavior of rats after ip injection (induction of sleep); format: in vivo, rat
# Description: Synthetic cis-9,10-octadecenoamide was injected (ip) into rats in order to test its effect on spontaneous behavior at different doses: 1 (n=2), 2 (n=2), 5 (n=7), 10 (n=10), 20 (n=2), and 50 (n=2) mg, where n = number of rats tested. […] However, at a threshold of 5 mg and above there was a marked effect consisting of an induction of long-lasting motor quiescence associated with eyes closed, sedated behavior characteristic of normal sleep. Also as with normal sleep, the rats still responded to auditory stimuli with orienting reflex and sustained attention toward the source of stimulation. In addition, motor behavior was impaired. The latency to behavioral sedation following administration was about 4 minutes and subjects were normally active again after 1 hour (5 mg), 2 hour (10 mg), or 2.5 hour (20 mg and 50 mg).
# (§1) We have compared cis-9,10-octadecenoamide to vehicle and the synthetic analogs listed in FIG. 1 to estimate the structural specificity of its sleep-inducing potential. […] More particularly, male Sprague-Dawley rats (300 g at the time of surgery) were implanted under halothane anesthesia (2-3%) with a standard set of electrodes for sleep recordings. This included two screw electrodes placed in the parietal bone over the hippocampus to record the subjects electroencephalogram (EEG) and two wire electrodes inserted in the neck musculature to record postural tone through electromyographic activity (EMG). Rats were housed individually with at libitum access to food and water. The dark-light cycle was controlled (12:12, lights on a 10:00 p.m.). One week after the surgery, rats were habituated to the recording conditions for at least three days. Upon the completion of the habituation period, rats received 2 milliliter (ip) of either: vehicle (5% ethanol/saline solution), cis-9,10-octadecenoamide (10 mg), or oleic acid (10 mg). […] Sleep recordings were visually scored and four stages were determined: wakefulness, slow-wave-sleep 1 (SWS1), slow-wave-sleep 2 (SWS2), and rapid eye movement (REM) sleep.
# male Sprague-Dawley rats = experiment: polysomnographic sleep recordings (EEG/EMG) in rats; format: in vivo, rat; conditions: 10 mg ip, recorded four hours
# From the text: as §1
# These increases with respect to slow wave sleep (SWS) were at the expense of waking.
smiles,measurement,setting,value
"CCCCCCCC/C=C\CCCCCCCC(N)=O [cis-9,10-octadecenoamide, Cis-9,10-octadecenoamide]","conversion of 14C-cis-9,10-octadecenoamide to oleic acid",[1],Rapid conversion
same,rate difference between hydrolysis of oleamide and stearic amide,[2],nearly twenty fold
same,% of FAAH activity (oleamide hydrolysis rate = 100%),[2]; 20 μM substrate,100%
same,Rate of Hydrolysis,[2]; 20 μM substrate,41 ± 2 nmol/min/mg
same,% of FAAH activity (anandamide hydrolysis rate = 100%),[2]; 100 μM substrate,72.6%
same,Rate of Hydrolysis,[2]; 100 μM substrate,242 ± 20 nmol/min/mg
same,duration of the biological (sleep-inducing) effect,rats; 10 mg per rat,two hours
same,"threshold dose for induction of long-lasting motor quiescence with eyes closed, sedated behavior","rats; rats, ip",5 mg
same,effect on spontaneous behavior,"rats; rats, ip, lower doses 1 and 2 mg",no overt effect on spontaneous behavior
same,distribution of REM sleep,male Sprague-Dawley rats,does not seem to be altered
same,mean duration of the SWS individual periods compared to vehicle controls,male Sprague-Dawley rats,increase
same,total time of slow wave sleep (SWS) compared to vehicle controls,male Sprague-Dawley rats,increase in the total time of slow wave sleep (SWS)
